Activity calls are given as the source filed them. No cut-off for these calls is given here.
Test system: PC-12
Experiment: Induction of neurite outgrowth in rat PC12 cells assessed as neurite bearing cells in absence of 20 ng/ml NGF incubated for 48 hrs by light microscopy
Type: functional, cell-based
Conditions: not given

Row | Compound | Activity
1 | C=C1CC[C@@H]2[C@](C)(CO)[C@H](O)CC[C@@]2(C)[C@@H]1/C=C/C1=CCOC1=O | Active

Test system: BV-2
Experiment: Antiinflammatory activity in mouse BV2 cells assessed as reduction in LPS-induced NO production incubated for 24 hrs by Griess method
Type: functional, cell-based
Conditions: not given

Row | Compound | inhibition
2 | C=C1CC[C@@H]2[C@](C)(COC(C)=O)[C@H](OC(C)=O)CC[C@@]2(C)[C@@H]1C/C=C1\C=COC1=O | Dose-dependent effect

Test system: BV-2
Experiment: Neuroprotective activity against microglia-conditioned medium-induced cytotoxicity in rat PC12 cells exposed to conditioned medium derived from 24 hrs compound pre-treated mouse BV2 cells assessed as increase in cell viability at 5 to 20 uM by MTT assay
Type: functional, cell-based
Conditions: not given

Row | Compound | Activity
3 | C=C1CC[C@@H]2[C@](C)(COC(C)=O)[C@H](OC(C)=O)CC[C@@]2(C)[C@@H]1C/C=C1\C=COC1=O | Active

Test system: not listed separately
Experiment: Lipophilicity, log P of the compound
Type: physicochemical
Conditions: octanol/water

Row | logP | Compound
4 | 3.23 | C=C1CC[C@@H]2[C@](C)(CO)[C@H](O)CC[C@@]2(C)[C@@H]1/C=C/C1=CCOC1=O

Same assay, conditions: octanol/water; read-out: logP

Row | logP | Compound
5 | 4.02 | C=C1CC[C@@H]2[C@](C)(COC(C)=O)[C@H](OC(C)=O)CC[C@@]2(C)[C@@H]1CCC1=CCOC1=O
6 | 3.87 | C=C1CC[C@@H]2[C@](C)(COC(C)=O)[C@H](OC(C)=O)CC[C@@]2(C)[C@@H]1C/C=C1\C=COC1=O

Test system: BV-2
Experiment: Neuroprotective activity against microglia-conditioned medium-induced cytotoxicity in rat PC12 cells exposed to conditioned medium derived from mouse BV2 cells assessed as increase in cell viability at 5 to 20 uM by MTT assay
Type: functional, cell-based
Conditions: not given

Row | Compound | Activity
7 | C=C1CC[C@@H]2[C@](C)(COC(C)=O)[C@H](OC(C)=O)CC[C@@]2(C)[C@@H]1C/C=C1\C=COC1=O | inactive

Test system: BV-2
Experiment: Cytotoxicity in mouse BV2 cells assessed as reduction in cell viability
Type: cell-based
Conditions: not given

Row | Compound | Activity
8 | C=C1CC[C@@H]2[C@](C)(COC(C)=O)[C@H](OC(C)=O)CC[C@@]2(C)[C@@H]1CCC1=CCOC1=O | Non-Toxic
9 | C=C1CC[C@@H]2[C@](C)(CO)[C@H](O)CC[C@@]2(C)[C@@H]1/C=C/C1=CCOC1=O | Non-Toxic
10 | C=C1CC[C@@H]2[C@](C)(COC(C)=O)[C@H](OC(C)=O)CC[C@@]2(C)[C@@H]1C/C=C1\C=COC1=O | Non-Toxic

Test system: PC-12
Experiment: Induction of neurite outgrowth in NGF-induced rat PC12 cells assessed as neurite bearing cells at 20 uM cotreated with 20 ng/ml NGF incubated for 48 hrs by light microscopy
Type: functional
Conditions: not given

Row | Compound | Activity
11 | C=C1CC[C@@H]2[C@](C)(COC(C)=O)[C@H](OC(C)=O)CC[C@@]2(C)[C@@H]1CCC1=CCOC1=O | inactive
12 | C=C1CC[C@@H]2[C@](C)(CO)[C@H](O)CC[C@@]2(C)[C@@H]1/C=C/C1=CCOC1=O | <=16.1%
13 | C=C1CC[C@@H]2[C@](C)(COC(C)=O)[C@H](OC(C)=O)CC[C@@]2(C)[C@@H]1C/C=C1\C=COC1=O | inactive

Test system: PC-12
Experiment: Induction of neurite outgrowth in NGF-induced rat PC12 cells assessed as neurite bearing cells at 20 uM cotreated with 20 ng/ml NGF incubated for 48 hrs by methylene blue staining based light microscopy
Type: functional
Conditions: not given

Row | Compound | Activity
14 | C=C1CC[C@@H]2[C@](C)(CO)[C@H](O)CC[C@@]2(C)[C@@H]1/C=C/C1=CCOC1=O | 18.6%

Test system: BV-2
Experiment: Antiinflammatory activity in mouse BV2 cells assessed as reduction in LPS-induced NO production at 20 uM incubated for 24 hrs by Griess method
Type: functional
Conditions: not given

Row | Compound | inhibition
15 | C=C1CC[C@@H]2[C@](C)(COC(C)=O)[C@H](OC(C)=O)CC[C@@]2(C)[C@@H]1CCC1=CCOC1=O | Active
16 | C=C1CC[C@@H]2[C@](C)(CO)[C@H](O)CC[C@@]2(C)[C@@H]1/C=C/C1=CCOC1=O | inactive

Same assay, conditions: BV-2, 24 h

Row | Compound | inhibition at 20 µM
17 | C=C1CC[C@@H]2[C@](C)(COC(C)=O)[C@H](OC(C)=O)CC[C@@]2(C)[C@@H]1C/C=C1\C=COC1=O | 78%

Test system: PC-12
Experiment: Neuroprotective activity against H2O2-induced toxicity in rat PC12 cells assessed as increase in cell viability at 20 uM pretreated for 24 hrs followed by H2O2 challenge and measured after 24 hrs by MTT assay
Type: functional, cell-based
Conditions: not given

Row | Compound | Activity
18 | C=C1CC[C@@H]2[C@](C)(COC(C)=O)[C@H](OC(C)=O)CC[C@@]2(C)[C@@H]1CCC1=CCOC1=O | inactive
19 | C=C1CC[C@@H]2[C@](C)(CO)[C@H](O)CC[C@@]2(C)[C@@H]1/C=C/C1=CCOC1=O | inactive
20 | C=C1CC[C@@H]2[C@](C)(COC(C)=O)[C@H](OC(C)=O)CC[C@@]2(C)[C@@H]1C/C=C1\C=COC1=O | inactive

Test system: BV-2
Experiment: Antiinflammatory activity in LPS induced mouse BV2 cells assessed as reduction in iNOS expression at 20 uM incubated for 24 hrs by DAPI based fluorescence microscopic method
Type: functional, cell-based
Conditions: not given

Row | Compound | Activity
21 | C=C1CC[C@@H]2[C@](C)(COC(C)=O)[C@H](OC(C)=O)CC[C@@]2(C)[C@@H]1C/C=C1\C=COC1=O | Active

Test system: BV-2
Experiment: Antiinflammatory activity in LPS induced mouse BV2 cells assessed as reduction in TNFalpha incubated for 6 hrs by ELISA method
Type: functional, cell-based
Conditions: not given

Row | Compound | Activity
22 | C=C1CC[C@@H]2[C@](C)(COC(C)=O)[C@H](OC(C)=O)CC[C@@]2(C)[C@@H]1C/C=C1\C=COC1=O | Dose-dependent effect

Test system: PC-12
Experiment: Induction of neurite outgrowth in NGF-induced rat PC12 cells assessed as neurite bearing cells cotreated with 20 ng/ml NGF incubated for 48 hrs by light microscopy
Type: functional, cell-based
Conditions: not given

Row | Compound | Activity
23 | C=C1CC[C@@H]2[C@](C)(CO)[C@H](O)CC[C@@]2(C)[C@@H]1/C=C/C1=CCOC1=O | Dose-dependent effect

Test system: BV-2
Experiment: Antiinflammatory activity in LPS induced mouse BV2 cells assessed as reduction in IL-6 incubated for 24 hrs by ELISA method
Type: functional, cell-based
Conditions: not given

Row | Compound | Activity
24 | C=C1CC[C@@H]2[C@](C)(COC(C)=O)[C@H](OC(C)=O)CC[C@@]2(C)[C@@H]1C/C=C1\C=COC1=O | Dose-dependent effect

Test system: BV-2
Experiment: Antiinflammatory activity in LPS-induced mouse BV2 cells assessed as reduction in iNOS mRNA expression at 20 uM incubated for 24 hrs by RT-PCR analysis method
Type: functional, cell-based
Conditions: not given

Row | Compound | Activity
25 | C=C1CC[C@@H]2[C@](C)(COC(C)=O)[C@H](OC(C)=O)CC[C@@]2(C)[C@@H]1C/C=C1\C=COC1=O | Active

Test system: PC-12
Experiment: Neuroprotective activity against 6-OHDA -induced toxicity in rat PC12 cells assessed as increase in cell viability at 20 uM pretreated for 24 hrs followed by 6-OHDA challenge and measured after 24 hrs by MTT assay
Type: functional, cell-based
Conditions: not given

Row | Compound | Activity
26 | C=C1CC[C@@H]2[C@](C)(COC(C)=O)[C@H](OC(C)=O)CC[C@@]2(C)[C@@H]1CCC1=CCOC1=O | inactive
27 | C=C1CC[C@@H]2[C@](C)(CO)[C@H](O)CC[C@@]2(C)[C@@H]1/C=C/C1=CCOC1=O | inactive
28 | C=C1CC[C@@H]2[C@](C)(COC(C)=O)[C@H](OC(C)=O)CC[C@@]2(C)[C@@H]1C/C=C1\C=COC1=O | inactive
